Consider 13 compounds from patent US20140288074A1, “FUNGICIDAL PYRAZOLES” (E I DU PONT DE NEMOURS AND COMPANY, priority 2013, published 2014).

As usually defined, the pest or weed control is the degree to which the test organism was suppressed or injured, in per cent. Read a low pest or weed control as a weak effect.

Holding throughout (type): in vivo
One test concerns Septoria nodorum. The test is described as follows: Test C: preventive spray on wheat seedlings, Septoria glume blotch, visual disease rating. To be noted: 200 ppm test suspension, Septoria nodorum inoculated the day after spraying; for pest or weed control at 200 ppm: Parastagonospora nodorum, 264 h. As for the experimental part:
General protocol for preparing test suspensions for Tests A-G: the test compounds were first dissolved in acetone in an amount equal to 3% of the final volume and then suspended at the desired concentration (in ppm) in acetone and purified water (50/50 mix by volume) containing 250 ppm of the surfactant Trem® 014 (polyhydric alcohol esters). The resulting test suspensions were then used in Tests A-G. Each test was conducted in triplicate, and the results were averaged. Spraying a 200 ppm test suspension to the point of run-off on the test plants was the equivalent of a rate of 800 g/ha. Unless otherwise indicated, the rating values indicate a 200 ppm test suspension was used. (An asterisk “*” next to the rating value indicates a 40 ppm test suspension was used.) The test suspension was sprayed to the point of run-off on wheat seedlings. The following day the seedlings were inoculated with a spore suspension of Septoria nodorum (the causal agent of Septoria glume blotch) and incubated in a saturated atmosphere at 24° C. for 48 h, and then moved to a growth chamber at 20° C. for 9 days, after which time visual disease ratings were made. Results for Tests A-G are given in Table A. In the Table, a rating of 100 indicates 100% disease control and a rating of 0 indicates no disease control (relative to the controls). A hyphen (-) indicates no test results.

The next test concerns Septoria tritici. The test can be described thus: Test D: preventive spray on wheat seedlings, wheat leaf blotch, visual disease rating. Conditions: 200 ppm test suspension, Septoria tritici inoculated the day after spraying; for pest or weed control at 200 ppm: Zymoseptoria tritici, 504 h. As to the method: General protocol for preparing test suspensions for Tests A-G: the test compounds were first dissolved in acetone in an amount equal to 3% of the final volume and then suspended at the desired concentration (in ppm) in acetone and purified water (50/50 mix by volume) containing 250 ppm of the surfactant Trem® 014 (polyhydric alcohol esters). The resulting test suspensions were then used in Tests A-G. Each test was conducted in triplicate, and the results were averaged. Spraying a 200 ppm test suspension to the point of run-off on the test plants was the equivalent of a rate of 800 g/ha. Unless otherwise indicated, the rating values indicate a 200 ppm test suspension was used. (An asterisk “*” next to the rating value indicates a 40 ppm test suspension was used.) The test suspension was sprayed to the point of run-off on wheat seedlings. The following day the seedlings were inoculated with a spore suspension of Septoria tritici (the causal agent of wheat leaf blotch) and incubated in saturated atmosphere at 24° C. for 48 h. and then the seedlings were moved to a growth chamber at 20° C. for 19 additional days, after which time visual disease ratings were made. Results for Tests A-G are given in Table A. In the Table, a rating of 100 indicates 100% disease control and a rating of 0 indicates no disease control (relative to the controls). A hyphen (-) indicates no test results.

Test [1] deals with Blumeria graminis f. sp. tritici. The test can be described thus: Test G: preventive spray on wheat seedlings, wheat powdery mildew, visual disease rating.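 As to all read-outs here: rated 8 days after spore dust inoculation at 20 °C.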 Conditions: 200 ppm test suspension, Blumeria graminis f. sp. tritici inoculated the day after spraying; for pest or weed control at 200 ppm: 192 h. As for the experimental part: General protocol for preparing test suspensions for Tests A-G: the test compounds were first dissolved in acetone in an amount equal to 3% of the final volume and then suspended at the desired concentration (in ppm) in acetone and purified water (50/50 mix by volume) containing 250 ppm of the surfactant Trem® 014 (polyhydric alcohol esters). The resulting test suspensions were then used in Tests A-G. Each test was conducted in triplicate, and the results were averaged. Spraying a 200 ppm test suspension to the point of run-off on the test plants was the equivalent of a rate of 800 g/ha. Unless otherwise indicated, the rating values indicate a 200 ppm test suspension was used. (An asterisk “*” next to the rating value indicates a 40 ppm test suspension was used.) The test suspension was sprayed to the point of run-off on wheat seedlings. The following day the seedlings were inoculated with a spore dust of Blumeria graminis f. sp. tritici (also known as Erysiphe graminis f. sp. tritici, the causal agent of wheat powdery mildew) and incubated in a growth chamber at 20° C. for 8 days, after which time visual disease ratings were made. Results for Tests A-G are given in Table A. In the Table, a rating of 100 indicates 100% disease control and a rating of 0 indicates no disease control (relative to the controls). A hyphen (-) indicates no test results.

A further test deals with Botrytis cinerea. The test can be described thus: Test A: preventive spray on tomato seedlings, tomato Botrytis, visual disease rating. Conditions: 200 ppm test suspension, Botrytis cinerea inoculated the day after spraying; for pest or weed control at 200 ppm: 120 h. As to the method: General protocol for preparing test suspensions for Tests A-G: the test compounds were first dissolved in acetone in an amount equal to 3% of the final volume and then suspended at the desired concentration (in ppm) in acetone and purified water (50/50 mix by volume) containing 250 ppm of the surfactant Trem® 014 (polyhydric alcohol esters). The resulting test suspensions were then used in Tests A-G. Each test was conducted in triplicate, and the results were averaged. Spraying a 200 ppm test suspension to the point of run-off on the test plants was the equivalent of a rate of 800 g/ha. Unless otherwise indicated, the rating values indicate a 200 ppm test suspension was used. (An asterisk “*” next to the rating value indicates a 40 ppm test suspension was used.) The test suspension was sprayed to the point of run-off on tomato seedlings. The following day the seedlings were inoculated with a spore suspension of Botrytis cinerea (the causal agent of tomato Botrytis) and incubated in saturated atmosphere at 20° C. for 48 h, and then moved to a growth chamber at 24° C. for 3 additional days, after which time visual disease ratings were made. Results for Tests A-G are given in Table A. In the Table, a rating of 100 indicates 100% disease control and a rating of 0 indicates no disease control (relative to the controls). A hyphen (-) indicates no test results.

The subject of test [2] is Puccinia recondita f. sp. tritici. The test is described as follows: Test F: preventive spray on wheat seedlings, wheat leaf rust, visual disease rating. Conditions: 200 ppm test suspension, Puccinia recondita f. sp. tritici inoculated the day after spraying; for pest or weed control at 200 ppm: 168 h. As for the experimental part:
General protocol for preparing test suspensions for Tests A-G: the test compounds were first dissolved in acetone in an amount equal to 3% of the final volume and then suspended at the desired concentration (in ppm) in acetone and purified water (50/50 mix by volume) containing 250 ppm of the surfactant Trem® 014 (polyhydric alcohol esters). The resulting test suspensions were then used in Tests A-G. Each test was conducted in triplicate, and the results were averaged. Spraying a 200 ppm test suspension to the point of run-off on the test plants was the equivalent of a rate of 800 g/ha. Unless otherwise indicated, the rating values indicate a 200 ppm test suspension was used. (An asterisk “*” next to the rating value indicates a 40 ppm test suspension was used.) The test suspension was sprayed to the point of run-off on wheat seedlings. The following day the seedlings were inoculated with a spore suspension of Puccinia recondita f. sp. tritici (the causal agent of wheat leaf rust) and incubated in a saturated atmosphere at 20° C. for 24 h, and then moved to a growth chamber at 20° C. for 6 days, after which time visual disease ratings were made. Results for Tests A-G are given in Table A. In the Table, a rating of 100 indicates 100% disease control and a rating of 0 indicates no disease control (relative to the controls). A hyphen (-) indicates no test results.

Turning to “4-(2-chloro-6-fluorophenyl)-N,1,3-trimethyl-α-(1-methylpropyl)-1H-pyrazole-5-methanamine [Compound 34]”, the “Test C rating (disease control)” value in the test with Septoria nodorum came out at 99%. Besides, the “Test D rating (disease control)” value with Septoria tritici was 12%. For the same compound, the “Test G rating (disease control)” value in test [1] was 0%. Besides, in the test with Botrytis cinerea, the “Test A rating (disease control)” value worked out at 0%. Also, the “Test F rating (disease control)” value in test [2] is recorded as 90%.
Regarding `Cc1nn(C)c(OCC(C)C)c1-c1c(F)cc(F)cc1F` [Compound 22, 1,3-dimethyl-5-(2-methylpropoxy)-4-(2,4,6-trifluorophenyl)-1H-pyrazole], the pest or weed control at 200 ppm in the test on Septoria nodorum was determined as 0%; with Septoria tritici, 0%; in test [1], 0%; with Botrytis cinerea, 0%; in test [2], 17%.
For `CCC(C)COc1c(-c2ccc(F)cc2Br)c(C)nn1C` (centres unmarked) [Compound 23, 4-(2-bromo-4-fluorophenyl)-1,3-dimethyl-5-(2-methylbutoxy)-1H-pyrazole], the pest or weed control at 200 ppm in the test on Septoria nodorum came out at 0%; in the test on Septoria tritici, 95%; in test [1] it was 0%; in the test on Botrytis cinerea, 70%; in test [2], 9%.
With `Cc1nn(C)c(C(O)C(C)C)c1-c1c(F)cccc1Cl` (stereo not drawn) [Compound 24, 4-(2-chloro-6-fluorophenyl)-1,3-dimethyl-α-(1-methylethyl)-1H-pyrazole-5-methanol], the pest or weed control at 200 ppm was 98% in the test with Septoria nodorum; 91% in the test on Septoria tritici; 97% in test [1]; 99% in the test on Botrytis cinerea; 99% in test [2].
Turning to `CNC(c1c(-c2c(F)cccc2Cl)c(C)nn1C)C(C)C` (stereo not drawn) [Compound 25, 4-(2-chloro-6-fluorophenyl)-N,1,3-trimethyl-α-(1-methylethyl)-1H-pyrazole-5-methanamine], the pest or weed control at 200 ppm in the test with Septoria nodorum worked out at 100%; in the test with Septoria tritici, 25%; in test [1] it was 99%; with Botrytis cinerea it was 0%; in test [2] it was 99%.
For the compound `CSC(c1c(-c2c(F)cccc2Cl)c(C)nn1C)C(C)C` (centres unmarked) [Compound 26, 4-(2-chloro-6-fluorophenyl)-1,3-dimethyl-5-[2-methyl-1-(methylthio)propyl]-1H-pyrazole], the pest or weed control at 200 ppm was determined as 99% in the test with Septoria nodorum; 3% in the test on Septoria tritici; 0% in test [1]; 0% in the test on Botrytis cinerea; 98% in test [2].
For `Cc1nn(C)c(OCC2CC2)c1-c1ccc(F)cc1Cl` [Compound 27, 4-(2-chloro-4-fluorophenyl)-5-(cyclopropylmethoxy)-1,3-dimethyl-1H-pyrazole], the pest or weed control at 200 ppm in the test with Septoria nodorum came to 69%; in the test with Septoria tritici, 100%; in test [1], 0%; in the test with Botrytis cinerea, 99%; in test [2], 9%.
On the same counts, the results for `Cc1nn(C)c(OC2CCCCC2)c1-c1ccc(F)cc1Cl` [Compound 28, 4-(2-chloro-4-fluorophenyl)-5-(cyclohexyloxy)-1,3-dimethyl-1H-pyrazole] are 0%, 100%, 73%, 95% and 58%.
Regarding `Cc1nn(C)c(OCC(C)C)c1-c1ccc(F)cc1Cl` [Compound 29], the “Test C rating (disease control)” value in the test with Septoria nodorum was found to be 100%. Further, the “Test D rating (disease control)” value in the test on Septoria tritici amounted to 63%. Moreover, the “Test G rating (disease control)” value in test [1] was determined as 0%. For the same compound, the “Test A rating (disease control)” value in the test on Botrytis cinerea was 0%. Besides, the “Test F rating (disease control)” value in test [2] was determined as 99%.
As for `COCCOc1c(-c2ccc(F)cc2Cl)c(C)nn1C` [Compound 30, 4-(2-chloro-4-fluorophenyl)-5-(2-methoxyethoxy)-1,3-dimethyl-1H-pyrazole], the pest or weed control at 200 ppm in the test on Septoria nodorum came out at 0%; with Septoria tritici, 85%; in test [1], 0%; in the test on Botrytis cinerea, 91%; in test [2], 58%.
Turning to `CCC(C)C(SC)c1c(-c2c(F)cccc2Cl)c(C)nn1C` (centres unmarked) [Compound 35, 4-(2-chloro-6-fluorophenyl)-1,3-dimethyl-5-[2-methyl-1-(methylthio)butyl]-1H-pyrazole], the pest or weed control at 200 ppm with Septoria nodorum turned out to be 0%; in test [1] it was 69%; in the test on Botrytis cinerea, 0%; in test [2], 0%.
For `COCCN(CCOC)c1c(-c2c(F)cc(F)cc2F)c(C)nn1C` [Compound 51], in the test with Septoria nodorum, the “Test C rating (disease control)” value is 100%. The “Test G rating (disease control)” value in test [1] was found to be 55%. Further, the “Test A rating (disease control)” value in the test on Botrytis cinerea came out at 82%. Moreover, in test [2], the “Test F rating (disease control)” value is recorded as 99%.
On the same counts, the results for `Cc1nn(C)c(NCC(C)C)c1-c1c(F)cc(F)cc1F` [Compound 53] are 100%, 81%, 95% and 100%.
